From US9682054B2, “Medium-chain length fatty acids, glycerides and analogues as stimulators of erythropoiesis” (PROMETIC PHARMA SMT LIMITED, priority 2003, dated 2017) come the findings set out here.

“Also recorded” adds a separate entry of the source. Like-named read-outs stand apart in the source and are kept apart here.

For data set [1], the system named is bone marrow from the femur. The settings on record: for Gross pathological observations: Bone Marrow Color: femur at day +5; for appearance of the femur (bone marrow): immunosuppression induced by 5-fluorouracil (5-FU) 80 mg/kg i.v., compared with the cyclophosphamide results (red femur). Here is the method:
Female C57BL/6 mice, 6 to 8 week old, were immunosuppressed by treatment with 200 mg/kg of cyclophosphamide (CY) or 80 mg/kg 5-fluorouracil (5-FU) administered intravenously at day 0. To examine the immunoprotective effect of MCT or other compounds, mice were pre-treated orally at day −3, −2 and −1 at day 0 with the compound. Mice were sacrificed at day +5 by cardiac puncture and cervical dislocation. Then, a gross pathological observation of the femurs (as a source of bone marrow cells) was recorded.

For a further data set, the system named is spleen red cell. As to the kind of experiment: Chemoprotection study: spleen red cell count in cyclophosphamide treated mice. The format is in vivo, C57BL/6 mice. From the text: Effect of tricaprin, capric acid and sodium caprate on in vivo induction of immune cell proliferation or protection was undertaken following the protocol described in example 1. After the sacrifice, tissues were crushed in PBS buffer and cells were counted on a hemacytometer. Effect of oral and intravenous administration of sodium caprate on in vivo induction of immune cell proliferation or protection was undertaken following the protocol described in example 1. After sacrifice, tissues were crushed in PBS buffer and cells were counted on a hemacytometer.

A further data set deals with bone marrow red cell. As to the kind of experiment: Chemoprotection study: bone marrow red cell count in cyclophosphamide treated mice, comparison with GM-CSF. Format: in vivo, C57BL/6 mice. From the text: (§1) Effect of oral and intravenous administration of sodium caprate and GM-CSF on in vivo induction of immune cell proliferation or protection was undertaken following the protocol described in example 1. After sacrifice, tissues were crushed in PBS buffer and cells were counted on a hemacytometer.

The next data set has as its system peripheral blood cell. The data set is described as follows: Chemoprotection study: number of peripheral blood cell. Format: in vivo, C57BL/6 mice. The settings on record: sodium caprate used alone.
Excerpt: as §1

The next data set concerns bone marrow cells. As to the kind of experiment: Anemia model: ex vivo bone marrow colony forming unit (CFU) formation assay. The format is in vivo, BALB/c mice. The following applies: i.v. pre-treatment. The protocol: To examine the immunoprotective or immunorestorative effect of sodium caprate in an anemia model, BALB/c mice were pre-treated intravenously at day −3, −2 and −1 with compound. Anemia was induced by treatment with 60 mg/kg phenylhydrazine administered intraperitonealy at day 0 to female BALB/c mice, 6 to 8 week old. Mice were sacrificed at day +6 by cardiac puncture and cervical dislocation. Then, bone marrow cells were obtained from femur. Cells were flushed and washed with PBS. Based on the viable cells count, the cells were resuspended at a concentration of 5×10^5 cells per ml in IMDM media supplemented with 2% FBS. From these cells, two replicates of 3×10^4 cells per dish were plated in Methocult medium so that a colony forming unit (CFU) formation assay could be undertaken. CFU-E and BFU-E were recorded after 2 to 3 days culture. CFU-GM and CFU-GEMM were recorded after 14 to 16 days culture.

For a further data set, the system named is human bone marrow cells. The data set is described as follows: In vitro human bone marrow cell proliferation ([3H]-thymidine incorporation). The format is cell-based. The protocol: Bone marrow cells were obtained from the sternum of cancer patients. Cells were washed with PBS and resuspended at a concentration of 2×10^6 cells per ml. Cells were cultured in RPMI/FBS media in the presence or the absence of tricaprin or tricaprylin for 48 and 72 hours at 37° C. After incubation, cells were pulsed with 1 μCi of [^3H]-thymidine for 6 hours. Plates were harvested on a Tomteck and counted on a Microbeta β-counter. Incorporation of [^3H]-thymidine in the DNA is a direct indication of the cell proliferation.

Data set [2] deals with human hematopoietic progenitors. The data set is described as follows: In vitro human bone marrow colony forming unit (CFU) formation assay. The following applies: for BFU-E / CFU-GEMM / CFU-GM / TOTAL CFC (Colony Forming Cells): tricaprin 10%; for increase in BFU-E colonies formation / increase in the number of CFU-GEMM: versus control. Format: cell-based. Here is the method:
Bone marrow cells were obtained from the sternum of various cancer patients. Cells were washed with PBS and resuspended at a concentration of 2×10^6 cells per ml. Cells were cultured in RPMI/FBS or Myelocult (Stem cell technology, Vancouver)/FBS media in the presence or the absence of tricaprin for 5 days at 37° C. After incubation, cells were harvested, washed and counted. Based on the viable cells count, the cells were resuspended at a concentration of 5×10^5 cells per ml in IMDM media supplemented with 2% FBS. From these cells, four replicates of 2.5×10^4 cells per dish were plated in Methocult medium so that a colony forming unit (CFU) formation assay could be undertaken. CFU-GM, CFU-GEMM and BFU-E were recorded after 14 to 16 days culture.

[3] abbreviates: cyclophosphamide (CY) 200 mg/kg i.v. day 0 plus compound given orally as pre-treatment.
Where [4] appears, read: single agent (GM-CSF at high concentration, 1 μg/kg).
[5] abbreviates: normal mice, bone marrow cells in Methocult.
Where [6] appears, read: phenylhydrazine-induced anemia mice (60 mg/kg i.p.).
Where [7] appears, read: Myelocult/FBS medium, Experiment 1.
The mark [8] stands for this setting: Myelocult/FBS medium, Experiment 2.

Regarding `O=P1(N(CCCl)CCCl)NCCCO1` (stereo not shown) [CY, cyclophosphamide, reference compound], in data set [1] (cyclophosphamide (CY) 200 mg/kg i.v. day 0 alone), the “Gross pathological observations: Bone Marrow Color” value (shortened to “Gross pathological observations”) was “White, almost translucent”.
For the molecule `CCCCCCCCCC(=O)O` [capric acid], the “Gross pathological observations” value in data set [1] (setting [3]) is recorded as “Red”. The “appearance of the femur (bone marrow)” value in data set [1] is on record as “same results”. Further, in the data set with spleen red cell (oral pre-treatment), the “spleen red cell count” value is on record as “significant increase”.
As to `CCCCCCCCCC(=O)[O-].[Na+]` [sodium caprate], in data set [1] (setting [3]), the “Gross pathological observations” value is “Red”. In addition, in data set [1], the “appearance of the femur (bone marrow)” value is listed as “same results”. Moreover, in the data set on spleen red cell (intravenous pre-treatment), the “spleen red cell count” value is “significant increase; also recorded: increases the spleen red cell counts to the baseline level of control mice”. Besides, in the data set on spleen red cell (oral pre-treatment), the “spleen red cell count” value is given as “significant increase”. Also, the “bone marrow red cell count” value with bone marrow red cell (in combination with GM-CSF) is reported as “additive increase”. In addition, the “bone marrow red cell count” value in the data set with bone marrow red cell (setting [4]) was “significant increase”. Further, in the data set on peripheral blood cell, the “number of peripheral blood cell” value is given as “significant increase”. In the data set with bone marrow cells (setting [5]), the “number of CFU-E” value was “enhances” and the “number of CFU-GEMM” value was “enhances”. Further, in the data set on bone marrow cells (setting [6]), the CFU-E result was “strong increase”, the CFU-GEMM entry is “strong increase” and the CFU-GM entry is on record as “strong increase”.
`CCCCCCCCCC(=O)OCC(COC(=O)CCCCCCCCC)OC(=O)CCCCCCCCC` [tricaprin]: the “Gross pathological observations” value in data set [1] (setting [3]) is “Red”. Moreover, in data set [1], the “appearance of the femur (bone marrow)” value is “same results”. Besides, in the data set with spleen red cell (oral pre-treatment), the “spleen red cell count” value was “significant increase”. The figures for the “bone marrow proliferation in combination with erythropoietin (EPO)” value in the data set with human bone marrow cells (48 hours) and in the data set with human bone marrow cells (72 hours) were “additive” and “synergistic”, respectively. Besides, the BFU-E in data set [2] (setting [7]) is recorded as 380; in data set [2] (setting [8]) it was 268; in data set [2] (RPMI/FBS medium, Experiment 1), 130; in data set [2] (RPMI/FBS medium, Experiment 2) it was 121. Moreover, the CFU-GEMM stood at 4.75 in data set [2] (setting [7]); 4.25 in data set [2] (setting [8]); 4.75 in data set [2] (RPMI/FBS medium, Experiment 1); 4 in data set [2] (RPMI/FBS medium, Experiment 2). The CFU-GM was 17 in data set [2] (setting [7]); 34 in data set [2] (setting [8]); 26 in data set [2] (RPMI/FBS medium, Experiment 1); 25 in data set [2] (RPMI/FBS medium, Experiment 2). In addition, the “TOTAL CFC (Colony Forming Cells)” value in data set [2] (setting [7]) is given as 401; in data set [2] (setting [8]) it was 306; in data set [2] (RPMI/FBS medium, Experiment 1), 161; in data set [2] (RPMI/FBS medium, Experiment 2) it was 150. Moreover, the “increase in BFU-E colonies formation” value in data set [2] (Myelocult/FBS medium) is given as “up to 6 times”; in data set [2] (RPMI/FBS medium) it was “up to 13 times”. The results for the “increase in the number of CFU-GEMM” value in data set [2] (Myelocult/FBS medium) and in data set [2] (RPMI/FBS medium) were “up to 2 times” and “up to 3 times”, respectively.
On to `CCCCCCCC(=O)OCC(COC(=O)CCCCCCC)OC(=O)CCCCCCC` [tricaprylin], for which the “Gross pathological observations” value in data set [1] (setting [3]) is given as “Red”. Moreover, the “appearance of the femur (bone marrow)” value in data set [1] was “same results”. Further, the “bone marrow proliferation in combination with erythropoietin (EPO)” value in the data set with human bone marrow cells (time not stated) was “synergistic increase”. Also, the “increase in bone marrow proliferation relative to the control” value with human bone marrow cells (human bone marrow cells, RPMI/FBS, 48 and 72 hours, [3H]-thymidine) is reported as 2 fold.
On to “GM-CSF: GM-CSF, comparator growth factor used at 1 μg/kg”, for which, in the data set on bone marrow red cell (setting [4]), the “bone marrow red cell count” value is “significant increase”.
